# From article PMC12040169 (PLOS Biology, 2025)
# Assay: in vitro
# Conditions: human, hela cells, % viability
row,SMILES,"viability at 28.5 h, 10 µM"
1,CCN1C(=O)C2(CC(=O)N(Cc3ccc(OC)c(OC)c3)C2=O)c2cc(C)ccc21 (stereo not drawn) [CBK075172],85.4%
2,Cn1cncc1C(=O)N1CCN(Cc2ccccc2)CC1 [CBK200178],98.2%
3,O=C(Nc1ccncc1)c1cc2cc(Cl)ccc2[nH]1 [CBK107340],95%
4,CCn1c(SCC(N)=O)nnc1C(C)Oc1ccc(C)c(C)c1 (stereo not drawn) [CBK270289],88.4%
5,CCOc1ccccc1C(=O)N1CCC(Cc2cccc(-c3cccs3)c2)(C(N)=O)CC1 [CBK285914],84.9%
6,Cc1cc(C)nc(N2CCC(c3cc(CCOc4cccc(C(F)(F)F)c4)[nH]n3)C2)n1 (stereo not drawn) [CBK285568],78.7%
7,Cn1c(=O)[nH]c(=O)c2cnc(-c3ccc(Cl)cc3)nc21 [CBK291208],95.6%
8,O=c1c(O)c(-c2ccc(F)cc2)oc2ccccc12 [CBK288369],72.4%
9,Cc1csc2c(N3CCCC3CC(=O)c3cnn(C)c3)ncnc12 (stereo not drawn) [CBK304429],81.8%
10,CN(Cc1cccc(Oc2ccccc2)c1)Cc1cccc2ccccc12 [CBK261857],96.9%
11,Cc1ccccc1-c1ccccc1CC1(C(N)=O)CCN(C(=O)CC2CCCCC2)CC1 [CBK285723],103%
12,O=C(O)CCNC1CC(=O)N(Cc2ccccc2)C1=O (stereo not drawn) [CBK287246],99%
13,COCCNCCOc1c(Cl)cc(C)cc1Br [CBK265087G],113%
14,Cc1nn(C)cc1-c1cncn1CCCOc1ccc(Cl)cc1 [CBK281787],87.5%
15,COc1cc(NS(=O)(=O)c2ccc(N/C=C3/CCc4ccccc4C3=O)cc2)nc(OC)n1 [CBK263376],82.4%
16,Cc1ccc(C2(CN3CCN(Cc4ncc[nH]4)CC3)CC2)cc1 [CBK283306],95.9%
17,Cc1cc(-c2ccc(=O)n(CCNC(=O)C3CCC3)n2)c(C)o1 [CBK284520],110%
18,COc1ccc(C(C)C)cc1-c1nccnc1NCc1ccc(S(C)(=O)=O)cc1 [CBK036903],92.5%
19,O=C(Nc1cc(N2CCCS2(=O)=O)ccc1F)c1n[nH]c2ccccc12 [CBK304216],80.5%
20,Cc1cc(C)c2c(n1)oc1c(NC(C)C)ncnc12 [CBK287917],108%
21,COc1ccc(C(=O)C2=C(O)C(=O)N(CCN(C)C)C2c2cccc([N+](=O)[O-])c2)cc1Cl (stereo not drawn) [CBK266474],102%
22,Cc1noc2c1[C@H]1[C@H](O)[C@H](O)C[C@H]1C1(CCC1)N2 [CBK303266],111%

row,SMILES,"viability at 28.5 h, 10 µM"
1,O=C(NCc1sccc1Cl)Nc1cccc(Cl)c1 [CBK057110],92.4%
2,O=C(O)CCN1C(=O)c2ccc(NC(=O)CCc3ccccc3)cc2C1=O [CBK266422],95.2%
3,CCc1ccc2oc(-c3ccc(NC(=O)COc4ccc(Cl)cc4Cl)cc3O)nc2c1 [CBK263424],104%
4,COc1cccc2ncn(CCCn3ccnn3)c(=O)c12 [CBK306650],103%
5,O=C(NCCc1ccc(Cl)cc1)C1(Cc2ccc(-c3ccncc3)cc2)CCOCC1 [CBK285570],89%
6,CC1CC1C(=O)N1CCCC(c2cc3cccnc3[nH]2)C1 (stereo not drawn) [CBK282156],80.3%
7,COc1ccc(CN2CCC(N3CCCCC3)CC2)c(OC)c1 [CBK261848],103%
8,COCCOc1nnc(C)c2ccccc12 [CBK019388],93.6%
9,CN1CCCN(c2nccnc2-c2cccc(O)c2)CC1 [CBK088820],112%
10,C=C[C@H]1C[N@@]2CC[C@H]1C[C@@H]2CNS(=O)(=O)c1ccc(NC(C)=O)cc1 [CBK288749],98.9%
11,O=C(C1CCCCC1)N1CCC(n2c(=O)oc3ccccc32)CC1 [CBK284348],97.2%
12,CCN1CCOC(CNCc2ccc(OCC(N)=O)cc2)C1 (stereo not drawn) [CBK305108],96.8%
13,O=c1[nH]c(=O)c2cc(S(=O)(=O)NCC3(N4CCOCC4)CCCCC3)ccc2[nH]1 [CBK286390],105%
14,Fc1ccc(-c2cc(Nc3ccccc3)ncn2)cc1F [CBK090913],105%
15,CN(C)CCN(C)c1nc(-c2ccc(Oc3ccccc3)cc2)cn2ccnc12 [CBK066469],99.8%
16,COc1cc2c(cc1OC)C(C(=O)O)CC(=O)N2 (stereo not drawn) [CBK218955],87.4%
17,COc1ccc(NC(=O)c2cc(C(C)C)n(-c3nc4ccccc4s3)n2)cc1 [CBK287667],100%
18,O=C(O)c1cccc(NC(=O)c2cccc(S(=O)(=O)Nc3ccc(Cl)cc3)c2)c1 [CBK261261],92.6%
19,Cc1cc(C(=O)NC(Cc2ccncc2)C2CC(O)C2)c(C)o1 (stereo not drawn) [CBK307181],96.5%
20,O=S(=O)(CCN1CCC(Cc2ccccc2)CC1)c1ccccc1 [CBK126386],94.9%
21,CN(Cc1ccccc1)c1nccnc1-c1ccc(F)c(Cl)c1 [CBK037997],107%
22,COc1ccc(OCCNC(=O)c2ccc(-c3ccc(C(C)=O)s3)nc2N(C)C(C)=O)cc1 [CBK076576],95.5%

row,SMILES,"viability at 28.5 h, 10 µM"
1,O=c1n(-c2cccc(C(F)(F)F)c2)ccn1S(=O)(=O)c1ccc(Cl)c(Cl)c1 [CBK106579],96.7%
2,O=C(NCc1cccc(C(F)(F)F)c1)N1CCN(CCc2ccccc2)CC1 [CBK158902],90.1%
3,CCCC12CN3CC(CCC)(CN(C1)C3C(O)C(O)C(O)CO)C2=O (stereo not drawn) [CBK265529],88.3%
4,Cc1cc(C)c2cc(CNC3CC3)c3nn(C)c(=O)n3c2c1 [CBK283186],93.8%
5,Cn1nc(-c2ccc(F)cc2)cc1[C@H]1CN2CC[C@H]1C[C@@H]2CNC(=O)N1CCOCC1 [CBK289108],116%
6,CC(C)(C)NC(=O)N1CCC(Nc2nccc(C(F)(F)F)n2)CC1 [CBK028788],113%
7,O=C(NC(=S)Nc1cccc(-c2nc3ccccc3s2)c1)c1cc([N+](=O)[O-])ccc1N1CCOCC1 [CBK268789],103%
8,O=C(c1cscn1)N1CCC(Cc2ccccc2)CC1 [CBK200188],103%
9,CC1Cc2cc(-c3cc4ccccn4c3)ccc2N1S(C)(=O)=O (stereo not drawn) [CBK285227],90.3%
10,CSc1nc(=O)c(CCC(=O)O)n[nH]1 [CBK019689],110%
11,O=S(=O)(c1cccc(C(F)(F)F)c1)N1CCN(Cc2ccc3c(c2)OCO3)CC1 [CBK074594],89.8%
12,COc1ccc(Oc2cc3n(c(=O)n2)CCc2cc(OC)c(OC)cc2-3)cc1 [CBK291177],86.1%
13,O=C(NC1Cc2ccccc2C1)c1cccc(-c2ccc(CC3CCCNC3=O)cc2)c1 (stereo not drawn) [CBK285579],94.9%
14,O=C1CC(C(=O)N2CCN(c3ncccn3)CC2)c2ccccc21 (stereo not drawn) [CBK144505],99.2%
15,O=C(COC(=O)C1CCN(S(=O)(=O)c2cccc3cccnc23)CC1)c1cccc([N+](=O)[O-])c1 [CBK264435],97%
16,COCc1nnc(Sc2nccnc2NC(C)C)s1 [CBK115204],99.6%
17,Cc1cc(NC(=O)C(=O)NCCN2CCN(S(C)(=O)=O)CC2)ccc1Br [CBK265401],85.4%
18,CCN(CC)CCN(Cc1ccc2c(c1)OCO2)C(=O)Nc1ccc(C)cc1 [CBK159059],89.3%
19,CCNC(=O)N[C@H]1C[C@@H](Cc2cc(CN(C)C)on2)C1(C)C [CBK289310],105%
20,O=C1c2cccc3cccc(c23)C(=O)N1CCCSc1nnc(-c2ccncc2)n1-c1ccccc1 [CBK268684],91%
21,CCOc1ccc(C(=O)NC(=S)Nc2sc(C)c(C)c2C#N)cc1Cl [CBK268900],91.8%
22,O=C(O)CCn1c2ccc(Cl)cc2c2cc(Cl)ccc21 [CBK261415],89.5%

row,SMILES,"viability at 28.5 h, 10 µM"
1,CC(=O)NCc1cccc(-c2cc(C(=O)O)cnc2-c2ccc(Cl)cc2)c1 [CBK156194],90.9%
2,Cc1nn(-c2ccccn2)c(C)c1[C@@H]1C=C[C@@H](NC(=O)NC(C)C)C1 [CBK289168],91.4%
3,CN(c1ncc(-c2cc3ccccc3o2)cc1C(=O)Nc1ccc2c(c1)OCO2)S(C)(=O)=O [CBK106464],101%
4,COc1ccc(CCn2cncc2-c2cnn(C)c2)cc1C [CBK281457],107%
5,CCc1nccn1CC(=O)N(C)C1CCCN(Cc2ccccc2F)C1 (stereo not drawn) [CBK306928],102%
6,Cc1ccccc1-n1ncc2c1NC(=O)N1CCCN=C21 [CBK284409],78.7%
7,Sc1nnc(COc2ccccc2)n1/N=C/c1ccc(-c2ccccc2)cc1 [CBK265269],117%
8,CCOc1cc(C(=S)N2CCCCC2)ccc1OC(=O)c1ccccc1Cl [CBK019660],98.9%
9,O=C1N=C(NC2CCCC2)OC12CCN(Cc1ccccc1)CC2 [CBK115430],103%
10,CN(CC(O)CN1CCOCC1)C(=O)c1cc2sccc2[nH]1 (stereo not drawn) [CBK306437],95.8%
11,CN(CCOc1ccc(Cl)cc1)C(=O)COc1cc2ccccc2cc1C(=O)O [CBK296720],108%
12,COc1cccc(C(=O)Nc2nc(-c3ccccc3)cs2)c1OC [CBK287697],104%
13,NC(=O)CN1CC2(CCN(Cc3cccc4cccnc34)CC2)c2ccccc21 [CBK137021],123%
14,O=C1CNC(=O)C2(C/C=C/C[C@H]3COCC[C@@H]3N1)CCN(Cc1ccc(Cl)cn1)CC2 [CBK292132],91%
15,COc1ccc(C(C)C)cc1-c1cn2ccnc2c(Nc2ccc(N3CCOCC3)cc2)n1 [CBK037338],103%
16,Cn1ncc2c(=O)[nH]c(N3CCN(c4cc(C#N)ccn4)CC3)nc21 [CBK304924],92.4%
17,CC(=O)c1cc2cnccc2[nH]c1=O [CBK089771],86.5%
18,CC(=O)NCCc1nc2cc(NC(=O)c3cccc([N+](=O)[O-])c3)ccc2n1C [CBK268478],90.7%
19,COCCN1C(=O)C2(CC(=O)N(Cc3ccccc3)C2=O)c2cc(OC)ccc21 (stereo not drawn) [CBK075177],92.5%
20,CCc1ccc(CNC(=O)Cn2nnc(-c3ccc(CNC4CCOCC4)cc3)n2)cc1 [CBK161029C],89.8%
21,Cc1ccc(Cc2cnc(NC(=O)NC3CCOCC3)s2)cc1Cl [CBK304440],82.2%
